Measured values reported in US20170190671A1, “BIS(ARYL)CATECHOL DERIVATIVES AS HERBICIDES” (E I DU PONT DE NEMOURS AND COMPANY, priority 2014, published 2017).

Experiments:
Assay in all cases: Test D postemergence
Format in all cases: in vivo
Conditions in all cases: scale 0 to 100
[1] = system: speedwell (bird's-eye speedwell, Veronica persica)
Summary of the method: (§1)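 Seeds planted in silt loam soil and sprayed preemergence with test chemical in a non-phytotoxic solvent mixture with surfactant; postemergence plants grown in peat/vermiculite medium and treated at 2–18 cm (1- to 4-leaf stage). Visual rating versus untreated controls after 14 to 21 days, 0 (no effect) to 100 (complete control).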

[2] = system: oilseed rape (Brassica napus)
Summary of the method: as §1

[3] = system: green foxtail (Setaria viridis)
Summary of the method: as §1

[4] = system: chamomile (scentless chamomile, Matricaria inodora)
Summary of the method: as §1

[5] = system: winter barley (Hordeum vulgare)
Summary of the method: as §1

[6] = system: field violet (Viola arvensis)
Summary of the method: as §1

[7] = system: wild mustard (Sinapis arvensis)
Summary of the method: as §1

[8] = system: Italian ryegrass (Lolium multiflorum)
Summary of the method: as §1

kochia (Kochia scoparia) = system: kochia (Kochia scoparia)
Summary of the method: as §1

[9] = system: downy bromegrass (Bromus tectorum)
Summary of the method: as §1

[10] = system: lambsquarters (Chenopodium album)
Summary of the method: as §1

[11] = system: chickweed (common chickweed, Stellaria media)
Summary of the method: as §1

[12] = system: cutleaf geranium (Geranium dissectum)
Summary of the method: as §1

[13] = system: winter wheat (Triticum aestivum)
Summary of the method: as §1

[14] = system: bluegrass (annual bluegrass, Poa annua)
Summary of the method: as §1

[15] = system: blackgrass (Alopecurus myosuroides)
Summary of the method: as §1

[16] = system: wild radish (Raphanus raphanistrum)
Summary of the method: as §1

[17] = system: spring wheat (Triticum aestivum)
Summary of the method: as §1

[18] = system: field poppy (Papaver rhoeas)
Summary of the method: as §1

[19] = system: galium (catchweed bedstraw, Galium aparine)
Summary of the method: as §1

[20] = system: wild buckwheat (Polygonum convolvulus)
Summary of the method: as §1

Fc1cnc(Oc2c(Br)cccc2Oc2ncc(Cl)cn2)nc1 [Compound 22]
Plant response rating, Speedwell ([1]; 16 g ai/ha): 30 | Plant response rating, Speedwell ([1]; 31 g ai/ha): 40 | Plant response rating, Speedwell ([1]; 62 g ai/ha): 75 | Plant response rating, Speedwell ([1]; 125 g ai/ha): 90 | Plant response rating, Oilseed Rape ([2]; 16 g ai/ha): 15 | Plant response rating, Oilseed Rape ([2]; 31 g ai/ha): 45 | Plant response rating, Oilseed Rape ([2]; 62 g ai/ha): 70 | Plant response rating, Oilseed Rape ([2]; 125 g ai/ha): 80 | Plant response rating, Foxtail, Green ([3]; 16 g ai/ha): 10 | Plant response rating, Foxtail, Green ([3]; 31 g ai/ha): 15 | Plant response rating, Foxtail, Green ([3]; 62 g ai/ha): 25 | Plant response rating, Foxtail, Green ([3]; 125 g ai/ha): 30 | Plant response rating, Chamomile ([4]; 16 g ai/ha): 0 | Plant response rating, Chamomile ([4]; 31 g ai/ha): 0 | Plant response rating, Chamomile ([4]; 62 g ai/ha): 0 | Plant response rating, Chamomile ([4]; 125 g ai/ha): 5 | Plant response rating, Barley, Winter ([5]; 16 g ai/ha): 5 | Plant response rating, Barley, Winter ([5]; 31 g ai/ha): 10 | Plant response rating, Barley, Winter ([5]; 62 g ai/ha): 10 | Plant response rating, Barley, Winter ([5]; 125 g ai/ha): 15 | Plant response rating, Field Violet ([6]; 16 g ai/ha): 25 | Plant response rating, Field Violet ([6]; 31 g ai/ha): 40 | Plant response rating, Field Violet ([6]; 62 g ai/ha): 70 | Plant response rating, Field Violet ([6]; 125 g ai/ha): 75 | Plant response rating, Mustard, Wild ([7]; 16 g ai/ha): 35 | Plant response rating, Mustard, Wild ([7]; 31 g ai/ha): 40 | Plant response rating, Mustard, Wild ([7]; 62 g ai/ha): 55 | Plant response rating, Mustard, Wild ([7]; 125 g ai/ha): 75 | Plant response rating, Ryegrass, Italian ([8]; 16 g ai/ha): 15 | Plant response rating, Ryegrass, Italian ([8]; 31 g ai/ha): 20 | Plant response rating, Ryegrass, Italian ([8]; 62 g ai/ha): 25 | Plant response rating, Ryegrass, Italian ([8]; 125 g ai/ha): 35 | Plant response rating, Kochia (kochia (Kochia scoparia); 16 g ai/ha): 40 | Plant response rating, Kochia (kochia (Kochia scoparia); 31 g ai/ha): 45 | Plant response rating, Kochia (kochia (Kochia scoparia); 62 g ai/ha): 60 | Plant response rating, Kochia (kochia (Kochia scoparia); 125 g ai/ha): 70 | Plant response rating, Bromegrass, Downy ([9]; 16 g ai/ha): 5 | Plant response rating, Bromegrass, Downy ([9]; 31 g ai/ha): 10 | Plant response rating, Bromegrass, Downy ([9]; 62 g ai/ha): 20 | Plant response rating, Bromegrass, Downy ([9]; 125 g ai/ha): 25 | Plant response rating, Lambsquarters ([10]; 16 g ai/ha): 50 | Plant response rating, Lambsquarters ([10]; 31 g ai/ha): 40 | Plant response rating, Lambsquarters ([10]; 62 g ai/ha): 75 | Plant response rating, Lambsquarters ([10]; 125 g ai/ha): 70 | Plant response rating, Chickweed ([11]; 16 g ai/ha): 30 | Plant response rating, Chickweed ([11]; 31 g ai/ha): 75 | Plant response rating, Chickweed ([11]; 62 g ai/ha): 75 | Plant response rating, Chickweed ([11]; 125 g ai/ha): 75 | Plant response rating, Geranium, Cutleaf ([12]; 16 g ai/ha): 45 | Plant response rating, Geranium, Cutleaf ([12]; 31 g ai/ha): 55 | Plant response rating, Geranium, Cutleaf ([12]; 62 g ai/ha): 55 | Plant response rating, Geranium, Cutleaf ([12]; 125 g ai/ha): 60 | Plant response rating, Wheat, Winter ([13]; 16 g ai/ha): 0 | Plant response rating, Wheat, Winter ([13]; 31 g ai/ha): 5 | Plant response rating, Wheat, Winter ([13]; 62 g ai/ha): 5 | Plant response rating, Wheat, Winter ([13]; 125 g ai/ha): 10 | Plant response rating, Bluegrass ([14]; 16 g ai/ha): 0 | Plant response rating, Bluegrass ([14]; 31 g ai/ha): 5 | Plant response rating, Bluegrass ([14]; 62 g ai/ha): 15 | Plant response rating, Bluegrass ([14]; 125 g ai/ha): 40 | Plant response rating, Blackgrass ([15]; 16 g ai/ha): 20 | Plant response rating, Blackgrass ([15]; 31 g ai/ha): 30 | Plant response rating, Blackgrass ([15]; 62 g ai/ha): 35 | Plant response rating, Blackgrass ([15]; 125 g ai/ha): 40 | Plant response rating, Radish, Wild ([16]; 16 g ai/ha): 25 | Plant response rating, Radish, Wild ([16]; 31 g ai/ha): 35 | Plant response rating, Radish, Wild ([16]; 62 g ai/ha): 90 | Plant response rating, Radish, Wild ([16]; 125 g ai/ha): 90 | Plant response rating, Wheat, Spring ([17]; 16 g ai/ha): 5 | Plant response rating, Wheat, Spring ([17]; 31 g ai/ha): 5 | Plant response rating, Wheat, Spring ([17]; 62 g ai/ha): 10 | Plant response rating, Wheat, Spring ([17]; 125 g ai/ha): 15 | Plant response rating, Field Poppy ([18]; 16 g ai/ha): 55 | Plant response rating, Field Poppy ([18]; 31 g ai/ha): 65 | Plant response rating, Field Poppy ([18]; 62 g ai/ha): 70 | Plant response rating, Field Poppy ([18]; 125 g ai/ha): 70 | Plant response rating, Galium ([19]; 16 g ai/ha): 70 | Plant response rating, Galium ([19]; 31 g ai/ha): 60 | Plant response rating, Galium ([19]; 62 g ai/ha): 75 | Plant response rating, Galium ([19]; 125 g ai/ha): 85 | Plant response rating, Buckwheat, Wild ([20]; 16 g ai/ha): 55 | Plant response rating, Buckwheat, Wild ([20]; 31 g ai/ha): 65 | Plant response rating, Buckwheat, Wild ([20]; 62 g ai/ha): 70 | Plant response rating, Buckwheat, Wild ([20]; 125 g ai/ha): 80
